Measurements from PubChem BioAssay AID1996.
Converted amounts (≈) assume the structure as drawn.

Settings: buffer; pH 7.4; 200.0 µM

| Structure (SMILES) | solubility kinetic |
| --- | --- |
| N=C1C(c2ccccc2)=C(O)CN1c1cccc2ccccc12 | > 45.1 µg/mL |
| CC(=O)CSc1ccc(-c2nc3ccccc3[nH]2)cn1 | > 42.5 µg/mL |
| Cc1onc(-c2ccccc2Cl)c1C(=O)OCC(=O)N1CCC(C)CC1 | > 56.5 µg/mL |
| COc1cc(/C=C(\C#N)C(=O)N2CCCCC2)ccc1O | > 42.9 µg/mL |
| O=C(CN1C(=O)c2cccc3cccc(c23)C1=O)N1CCOCC1 | > 48.7 µg/mL |
| COC(=O)CCC(=O)NNC(=O)Cc1ccccc1 | > 39.6 µg/mL |
| Cc1ccccc1NC(=O)COC(=O)C1C2CC3OC(=O)C1C3C2 (stereo not given) | > 49.4 µg/mL |
| COc1ccc(C(=O)NCCNc2ccccc2[N+](=O)[O-])cc1 | 36.3 µg/mL (≈ 115 µM) |
| COc1ccc(NC(=O)CCn2cccc2)c(OC)c1 | 36.1 µg/mL (≈ 132 µM) |
| COCC(=O)Nc1ccc2c(c1)OCC(=O)N2Cc1ccccc1F | 46.4 µg/mL (≈ 135 µM) |
| Cc1c(NS(=O)(=O)c2cc(C(=O)N3CCCC(C)C3)ccc2Cl)c(=O)n(-c2ccccc2)n1C (stereo not given) | > 75.5 µg/mL |
| CC(C)(C)CC(=O)Nc1ccc(S(=O)(=O)NC2=NCCCCC2)cc1 | > 54.8 µg/mL |
| COc1ccc(S(=O)(=O)N2CCN(C(=O)c3cc4c(s3)CCC4)CC2)cc1 | 7.7 µg/mL (≈ 18.9 µM) |
| O=C(Nc1cccc(O)c1)c1ccc(S(=O)(=O)N2CCCCCC2)cc1 | 3.7 µg/mL (≈ 9.88 µM) |
| NC(=O)C1CCN(C(=O)/C=C/c2ccccc2[N+](=O)[O-])CC1 | > 45.5 µg/mL |
| COc1cccc(CN(C)C(=O)CCN=C2NS(=O)(=O)c3ccccc32)c1 | > 58.1 µg/mL |
| O=C(CSc1nc2ccc(Cl)cc2[nH]1)NC1CCCC1 | 9.3 µg/mL (≈ 30 µM) |
| CC(=O)c1cccc(OCCCOc2cccc3cccnc23)c1 | 37.2 µg/mL (≈ 116 µM) |
| COc1ccccc1NC(=O)c1c(O)c2ccccc2[nH]c1=O | 1.2 µg/mL (≈ 3.87 µM) |
| CCOc1ccc(Nc2ccc([N+](=O)[O-])c3nonc23)cc1 | 15.2 µg/mL (≈ 50.6 µM) |
| O=C(Nc1cc2c(cc1Br)OCCCO2)c1cccnc1 | > 52.4 µg/mL |
| COc1ccc(NC(C)=O)cc1CP(=O)(c1ccccc1)c1ccccc1 | > 56.9 µg/mL |
| O=C(O)C(=O)O.O=C(c1ccco1)N1CCN(Cc2ccccc2F)CC1 | 33.9 µg/mL |
| CN(C)c1cc(-c2ccccc2)nc(-c2ccccc2)n1 | < 0.2 µg/mL |

| Structure (SMILES) | solubility kinetic |
| --- | --- |
| COc1cc(NC(=O)CN2C(=O)NC(CC(C)C)C2=O)cc(OC)c1OC (stereo not given) | > 56.9 µg/mL |
| Clc1cccc(CN2CCSCC2)c1 | 3.8 µg/mL (≈ 16.7 µM) |
| CCC(CC)NC(=O)Nc1ccccc1C(F)(F)F | 10.8 µg/mL (≈ 39.4 µM) |
| O=S(=O)(c1ccccc1)N1CCN(c2ccccc2)CC1 | 0.4 µg/mL (≈ 1.32 µM) |
| CCOC(=O)C1CCN(S(=O)(=O)c2ccc(-c3ccccn3)s2)CC1 | 3.9 µg/mL (≈ 10.2 µM) |
| Cc1cccc(C)c1NC(=O)CN1C(=O)COc2ccccc21 | 6 µg/mL (≈ 19.3 µM) |
| O=c1c(Cc2ccc(F)cc2)c(O)ccn1CCCn1ccnc1 | > 49.1 µg/mL |
| CC(=NCc1ccc2c(c1)OCO2)c1c(O)n(-c2ccccc2)c(=O)[nH]c1=O | 6.6 µg/mL (≈ 17.4 µM) |
| Cc1ccc(C(=O)O)cc1NC(=S)NCCc1ccccc1 | > 47.2 µg/mL |
| Cc1ccc(C)c(NC(=S)N2CCN(c3ccccn3)CC2)c1 | 14.1 µg/mL (≈ 43.2 µM) |
| Cc1ccc(C(=O)N2CCN(c3nc4ccccc4n3C)CC2)cc1 | > 50.2 µg/mL |
| Cc1cnc(C(=O)OCc2ccc(Br)cc2)cn1 | 19 µg/mL (≈ 61.9 µM) |
| COc1cccc(NC(=O)CN2CCSc3ccccc32)c1 | 25.5 µg/mL (≈ 81.1 µM) |
| CCc1ccc(S(=O)(=O)N2CCN(c3ncccn3)CC2)cc1 | 1.7 µg/mL (≈ 5.11 µM) |
| Clc1ccc(COn2ccnc2)cc1Cl | > 36.5 µg/mL |
| CC(C)(CN1CCOCC1)NS(=O)(=O)c1ccccc1 | 38 µg/mL (≈ 127 µM) |
| Cc1cc(OC(F)F)ccc1NC(=O)Nc1ccc2c(c1)OCO2 | < 0.4 µg/mL |
| CC1CN(C(=O)c2ccc(NS(=O)(=O)c3ccc(C(C)(C)C)cc3)cc2)CC(C)O1 (stereo not given) | 48 µg/mL (≈ 111 µM) |
| CN1C(=O)C(CCC(=O)O)NC1=S (stereo not given) | 28.2 µg/mL (≈ 139 µM) |
| Cc1ccc(SCC(=O)N(C)C2CCS(=O)(=O)C2)c(C)c1 (stereo not given) | > 49.1 µg/mL |
| N#Cc1c(N)n(-c2ccc(N)cc2)c2nc3ccccc3nc12 | 1.2 µg/mL (≈ 4 µM) |
| CCOC(=O)N1CCN(C(=O)c2cc3ccccc3o2)CC1 | > 45.3 µg/mL |
| COc1ccc(CCNC(=S)NC(=O)c2ccccc2)cc1C | 0.8 µg/mL (≈ 2.44 µM) |
| O=[N+]([O-])c1cccc2c(N3CCCC3)ccnc12 | > 36.5 µg/mL |

| Structure (SMILES) | solubility kinetic |
| --- | --- |
| COc1ccc(C(=O)NCCc2cn3ccccc3n2)cc1 | 42.9 µg/mL (≈ 145 µM) |
| COc1ccc(-c2ncncc2-c2ccccc2)c(O)c1 | 11.6 µg/mL (≈ 41.7 µM) |
| CCCn1c(SCC(=O)NC2CCC(C)CC2)n[nH]c1=O (stereo not given) | > 46.9 µg/mL |
| Cc1cc(=O)n(Cc2ccc(OC(C)C)cc2)c(=S)[nH]1 | 13.8 µg/mL (≈ 47.5 µM) |
| CSCC(=O)N1CCCC(CO)(CCCc2ccccc2)C1 (stereo not given) | > 48.2 µg/mL |
| O=C(CSc1nnc2ccccn12)c1ccc(Cl)cc1 | > 45.6 µg/mL |
| C/C(=N\NC(=O)c1ccncc1)c1cccnc1 | > 36 µg/mL |
| CCOC(=O)COc1nc(-c2ccc(Cl)cc2)cc(-c2ccco2)c1C#N | < 0.4 µg/mL |
| O=C(CSc1cccc[n+]1[O-])c1cccs1 | 28 µg/mL (≈ 111 µM) |
| Cc1cc(NC(=O)Nc2cccc([N+](=O)[O-])c2)no1 | 2.2 µg/mL (≈ 8.39 µM) |
| CC(C)CNc1nc(N)c([N+](=O)[O-])c(NC2CCCCC2)n1 | < 0.1 µg/mL |
| CC(NC(=O)CCC(=O)c1ccccc1)c1ccc(F)cc1 (stereo not given) | > 44.9 µg/mL |
| Clc1cccc(Cl)c1CO/N=C/c1cccs1 | > 42.9 µg/mL |
| O=C(Nc1cccc(C(=O)Nc2ccccc2F)c1)c1ccccc1 | 1 µg/mL (≈ 2.99 µM) |
| COc1ccc(/C=C2\N=C(C)OC2=O)cc1OC(C)=O | > 41.3 µg/mL |
| NC(=S)C1COc2ccccc2O1 (stereo not given) | > 29.3 µg/mL |
| COc1cc(S(=O)(=O)N2CCCN(C)CC2)ccc1NC(C)=O | > 51.2 µg/mL |
| NC(=O)CCC(NC(=S)Nc1ccccc1)C(=O)O (stereo not given) | 39.3 µg/mL (≈ 140 µM) |
| O=C1NC(CCc2ccccc2)C(=O)N1CCOc1ccccc1 (stereo not given) | 2.5 µg/mL (≈ 7.71 µM) |
| Fc1ccc(C(CCNCc2cccs2)c2ccco2)cc1 (stereo not given) | 34.2 µg/mL (≈ 108 µM) |
| CC(CCc1ccccc1)NC(=O)Cc1ccc(Br)cc1 (stereo not given) | 2.5 µg/mL (≈ 7.22 µM) |
| O=C(CSc1nc2ccccc2o1)NC1CCCC1 | > 41.5 µg/mL |
| CC(C)c1ccc(C(C)NC(=O)C2CCCC2)cc1 (stereo not given) | 2.6 µg/mL (≈ 10 µM) |
| CCN1CCN(C/C(C)=C/c2ccccc2)CC1 | 27.2 µg/mL (≈ 111 µM) |

| Structure (SMILES) | solubility kinetic |
| --- | --- |
| Cc1cc(NCc2cccnc2)nc(N)n1 | > 32.3 µg/mL |
| Cl.O=C(OCCN1CCOCC1)c1ccccc1 | 39.6 µg/mL |
| CC(O)c1cccc(NC(=O)CCCc2ccccc2)c1 (stereo not given) | 39 µg/mL (≈ 138 µM) |
| O=C1c2ccccc2C(=O)N1CCOc1ccccc1Br | 4 µg/mL (≈ 11.6 µM) |
| CC(=O)Nc1ccc(Oc2ccccc2)cc1 | 33.6 µg/mL (≈ 148 µM) |
| O=C(O)c1cc(S(=O)(=O)N2CCCCC2)ccc1N1CCCC1 | > 50.8 µg/mL |
| CCOC(=O)c1ccc2[nH]c3c(c2c1)CCCC3 | 5.5 µg/mL (≈ 22.6 µM) |
| COc1ccc(NS(=O)(=O)c2ccc(F)cc2F)cn1 | 43.3 µg/mL (≈ 144 µM) |
| CCC(C)NC(=O)c1ccc(NC(=O)C2=C(C)OCCS2)cc1 (stereo not given) | > 50.2 µg/mL |
| CCOc1cc(CC(=O)N[C@@H](CC(C)C)c2ccccc2N2CCCCC2)ccc1C(=O)O | > 67.9 µg/mL |
| Cn1cccc1/C=N\NC(=O)c1cncc(Br)c1 | > 46.1 µg/mL |
| Cc1ccccc1CC(=O)Nc1ccc2c(c1)CCC2 | < 0.6 µg/mL |
| Cc1ccc(CC2C(=O)N(c3cc(C)ccc3C)C(=O)C2C)cc1 (stereo not given) | 4.6 µg/mL (≈ 14.3 µM) |
| COc1ccc(NC(=O)COC(=O)CC2CCCCC2)cc1 | > 45.8 µg/mL |
| CC(C)N(C(=O)COC(=O)c1cccnc1Cl)c1ccccc1 | > 49.9 µg/mL |
| O=S(=O)(c1ccc(Cl)cc1)N1CCN2CCCC2C1 (stereo not given) | > 45.1 µg/mL |
| CCOC(=O)N1CCc2c(sc(NC(=O)CN3CCOCC3)c2C#N)C1 | 48.5 µg/mL (≈ 128 µM) |
| COCc1cc(=O)[nH]c2c1c(-c1ccccc1)nn2C | > 40.4 µg/mL |
| O=c1[nH]c(/C=C/c2ccc([N+](=O)[O-])cc2)c([N+](=O)[O-])c(=O)[nH]1 | 24.9 µg/mL (≈ 81.8 µM) |
| Cc1cccc(N=C2NC(=O)/C(=C/c3cccn3C)S2)c1C | 8.2 µg/mL (≈ 26.3 µM) |
| O=S(=O)(c1c(F)cccc1F)N1CCCC2CCCCC21 (stereo not given) | 13.3 µg/mL (≈ 42.2 µM) |
| COc1ccc(CCNCC(=O)Nc2ccc(OC(F)F)cc2)cc1 | 34.4 µg/mL (≈ 98.2 µM) |
| Cc1ccccc1OCC(=O)Nc1ccccc1NC(=O)c1ccco1 | 36.7 µg/mL (≈ 105 µM) |
| CC(=O)Nc1ccc(Nc2cc(C)c3ccccc3n2)cc1 | 41.6 µg/mL (≈ 143 µM) |

| Structure (SMILES) | solubility kinetic |
| --- | --- |
| CC(C)(C)c1ccc2c(c1)N(CC(=O)N1CCCC1)C(=O)CO2 | > 47.5 µg/mL |
| COc1cccc(Oc2ccc(S(=O)(=O)N3CCOCC3)cc2[N+](=O)[O-])c1 | 11 µg/mL (≈ 27.9 µM) |
| CCN(C(=O)COc1nc(C)cc(C)c1C#N)c1ccccc1 | 9.3 µg/mL (≈ 30.1 µM) |
| CN(CCOc1ccc(Cl)cc1)C(=O)C1=CC=CN2CCS(=O)(=O)N=C12 | > 59.4 µg/mL |
| Cc1ccc(-c2cc(-c3ccccc3)nc(N)c2C#N)o1 | < 0.2 µg/mL |
| Cc1ccc(C(=O)NCCCNC(=O)c2ccco2)cc1C | 43.4 µg/mL (≈ 144 µM) |
| CC1CN=C(N(C(=O)Nc2ccccc2)C(C)c2ccccc2)S1 (stereo not given) | 27 µg/mL (≈ 79.5 µM) |
| CC(C)(C)C(=O)OCc1nc(-c2ccc(F)cc2)cs1 | < 0.6 µg/mL |
| COc1ccccc1CCNC(=O)c1ccc2nc[nH]c2c1 | > 44.3 µg/mL |
| Cc1ccc(Cl)cc1NC(=S)NCCCSC1CCCCC1 | 2.5 µg/mL (≈ 7 µM) |
| CCOC(=O)c1cc2c(=O)[nH]ccc2nc1C(F)(F)F | > 42.9 µg/mL |
| Fc1ccc2[nH]c3c(Cl)ncnc3c2c1 | 7.9 µg/mL (≈ 35.6 µM) |
| O=C(COC(=O)c1cccnc1Cl)NC(=O)NC1CCCCC1 | > 51 µg/mL |
| O=S(=O)(Nc1ccc2ccccc2n1)c1ccc2c(c1)CCO2 | 45.9 µg/mL (≈ 141 µM) |
| CC(=O)Nc1cc2c3c(c1)CC(=O)N3CCC2 | > 34.5 µg/mL |
| Cc1ccc(CN(C)c2ccc(S(=O)(=O)N3CCCC3)cn2)cc1 | 12.5 µg/mL (≈ 36.2 µM) |
| COc1ccc(CNC(=O)c2cccnc2SC)cc1OC | > 47.8 µg/mL |
| Cc1cccc(C(=O)OC(C)CN2CCN(C)CC2)c1.Cl (stereo not given) | > 46.9 µg/mL |
| COC1c2ccccc2C(=O)N1Cc1ccc(F)cc1 (stereo not given) | 37.4 µg/mL (≈ 138 µM) |
| Cc1nc(/C(=N/O)C(N)=O)cs1 | > 27.8 µg/mL |
| COC(=O)c1sccc1Oc1ccc(Cl)cc1N1C(=O)CCC1=O | 48.5 µg/mL (≈ 133 µM) |
| Cc1cccc(C(=O)NCC(=O)N2CCC2)c1 | > 34.8 µg/mL |
| Cc1nc2c(c(=O)c3ccccc3n2C)c(=O)n1-c1ccc(F)cc1 | 13.7 µg/mL (≈ 40.9 µM) |
| CC(C)(C)C(=O)OC/C(N)=N/OC(=O)c1ccc(Cl)cc1 | 1.6 µg/mL (≈ 5.12 µM) |
